# From patent US20240000872A1, “NOVEL BACTERIOPHAGE THAT LYSES ACINETOBACTER GENUS BACTERIA HAVING RESISTANCE TO ANTIBIOTICS” (priority 2020, published 2024)
# Test system: Acinetobacter baumannii strains
# Assay: Antibiotic susceptibility test (CLSI disk diffusion test method, read per CLSI 2016); as to antibiotic susceptibility S/I/R: key: ‘S’ means susceptible; ‘I’ means intermediate; ‘R’ means resistant; as to susceptibility category (S/I/R): key: ‘S’ means susceptible; ‘I’ means intermediate; ‘R’ means resistant
# Assay type: cell-based
# Parameters: antibiotic susceptibility test value / susceptibility test value (number given before S/I/R) / antibiotic susceptibility value: unit not given here
substance,measurement,setting,value
piperacillin-tazobactam,antibiotic susceptibility value,host strain YMC16/01/R353,128
same,susceptibility category (S/I/R),host strain YMC16/01/R353,R
same,susceptibility test value (number given before S/I/R),host strain YMC16/01/R353,128
same,antibiotic susceptibility S/I/R,host strain YMC16/01/R380,R
same,antibiotic susceptibility value,host strain YMC16/01/R380,128
same,susceptibility category (S/I/R),host strain YMC16/01/R380,R
same,susceptibility test value (number given before S/I/R),host strain YMC16/01/R380,128
same,antibiotic susceptibility S/I/R,host strain YMC16/01/R397,R
same,antibiotic susceptibility value,host strain YMC16/01/R397,128
same,susceptibility category (S/I/R),host strain YMC16/01/R397,R
same,susceptibility test value (number given before S/I/R),host strain YMC16/01/R397,128
same,antibiotic susceptibility S/I/R,host strain YMC16/01/R405,R
same,antibiotic susceptibility value,host strain YMC16/01/R405,128
same,susceptibility category (S/I/R),host strain YMC16/01/R405,R
same,susceptibility test value (number given before S/I/R),host strain YMC16/01/R405,128
same,antibiotic susceptibility S/I/R,host strain YMC16/03/R4461,R
same,antibiotic susceptibility value,host strain YMC16/03/R4461,128
same,susceptibility category (S/I/R),host strain YMC16/03/R4461,R
same,susceptibility test value (number given before S/I/R),host strain YMC16/03/R4461,128
same,antibiotic susceptibility S/I/R,host strain YMC16/05/R2210,R
same,antibiotic susceptibility value,host strain YMC16/05/R2210,128
same,susceptibility category (S/I/R),host strain YMC16/05/R2210,R
same,susceptibility test value (number given before S/I/R),host strain YMC16/05/R2210,128
same,antibiotic susceptibility S/I/R,host strain YMC16/07/R2512,R
same,antibiotic susceptibility value,host strain YMC16/07/R2512,128
same,susceptibility category (S/I/R),host strain YMC16/07/R2512,R
same,susceptibility test value (number given before S/I/R),host strain YMC16/07/R2512,128
same,antibiotic susceptibility S/I/R,host strain YMC16/09/R2471,R
same,antibiotic susceptibility value,host strain YMC16/09/R2471,128
same,susceptibility category (S/I/R),host strain YMC16/09/R2471,R
same,susceptibility test value (number given before S/I/R),host strain YMC16/09/R2471,128
same,antibiotic susceptibility S/I/R,host strain YMC16/10/R2537,R
same,antibiotic susceptibility value,host strain YMC16/10/R2537,128
same,susceptibility category (S/I/R),host strain YMC16/10/R2537,R
same,susceptibility test value (number given before S/I/R),host strain YMC16/10/R2537,128
same,antibiotic susceptibility S/I/R,host strain YMC16/12/B11422,R
same,antibiotic susceptibility value,host strain YMC16/12/B11422,128
same,susceptibility category (S/I/R),host strain YMC16/12/B11422,R
same,susceptibility test value (number given before S/I/R),host strain YMC16/12/B11422,128
same,antibiotic susceptibility S/I/R,host strain YMC16/12/B11449,R
same,antibiotic susceptibility value,host strain YMC16/12/B11449,128
same,susceptibility category (S/I/R),host strain YMC16/12/B11449,R
same,susceptibility test value (number given before S/I/R),host strain YMC16/12/B11449,128
same,antibiotic susceptibility S/I/R,host strain YMC16/12/B13325,R
same,antibiotic susceptibility value,host strain YMC16/12/B13325,128
same,susceptibility category (S/I/R),host strain YMC16/12/B13325,R
same,susceptibility test value (number given before S/I/R),host strain YMC16/12/B13325,128
same,antibiotic susceptibility S/I/R,host strain YMC16/12/P503,R
same,antibiotic susceptibility value,host strain YMC16/12/P503,128
same,susceptibility category (S/I/R),host strain YMC16/12/P503,R
same,susceptibility test value (number given before S/I/R),host strain YMC16/12/P503,128
same,antibiotic susceptibility S/I/R,host strain YMC16/12/R4637,R
same,antibiotic susceptibility value,host strain YMC16/12/R4637,128
same,susceptibility category (S/I/R),host strain YMC16/12/R4637,R
same,susceptibility test value (number given before S/I/R),host strain YMC16/12/R4637,128
same,antibiotic susceptibility S/I/R,host strain YMC17/01/B8053,R
same,antibiotic susceptibility value,host strain YMC17/01/B8053,128
same,susceptibility category (S/I/R),host strain YMC17/01/B8053,R
same,susceptibility test value (number given before S/I/R),host strain YMC17/01/B8053,128
same,antibiotic susceptibility S/I/R,host strain YMC17/01/B10087,R
same,antibiotic susceptibility value,host strain YMC17/01/B10087,128
same,susceptibility category (S/I/R),host strain YMC17/01/B10087,R
same,susceptibility test value (number given before S/I/R),host strain YMC17/01/B10087,128
same,antibiotic susceptibility S/I/R,host strain YMC17/01/B12075,R
same,antibiotic susceptibility value,host strain YMC17/01/B12075,128
same,susceptibility category (S/I/R),host strain YMC17/01/B12075,R
same,susceptibility test value (number given before S/I/R),host strain YMC17/01/B12075,128
same,antibiotic susceptibility S/I/R,host strain YMC17/01/B13454,R
same,antibiotic susceptibility value,host strain YMC17/01/B13454,128
same,susceptibility category (S/I/R),host strain YMC17/01/B13454,R
same,susceptibility test value (number given before S/I/R),host strain YMC17/01/B13454,128
same,antibiotic susceptibility S/I/R,host strain YMC17/01/P518,R
same,antibiotic susceptibility value,host strain YMC17/01/P518,128
same,susceptibility category (S/I/R),host strain YMC17/01/P518,R
same,susceptibility test value (number given before S/I/R),host strain YMC17/01/P518,128
same,antibiotic susceptibility S/I/R,host strain YMC17/01/R2812,R
same,antibiotic susceptibility value,host strain YMC17/01/R2812,128
same,susceptibility category (S/I/R),host strain YMC17/01/R2812,R
same,susceptibility test value (number given before S/I/R),host strain YMC17/01/R2812,128
same,antibiotic susceptibility S/I/R,host strain YMC17/02/B14,R
same,antibiotic susceptibility value,host strain YMC17/02/B14,128
same,susceptibility category (S/I/R),host strain YMC17/02/B14,R
same,susceptibility test value (number given before S/I/R),host strain YMC17/02/B14,128
same,antibiotic susceptibility S/I/R,host strain YMC17/02/B87,R
same,antibiotic susceptibility value,host strain YMC17/02/B87,128
same,susceptibility category (S/I/R),host strain YMC17/02/B87,R
same,susceptibility test value (number given before S/I/R),host strain YMC17/02/B87,128
same,antibiotic susceptibility S/I/R,host strain YMC17/02/B721,R
same,antibiotic susceptibility value,host strain YMC17/02/B721,128
same,susceptibility category (S/I/R),host strain YMC17/02/B721,R
same,susceptibility test value (number given before S/I/R),host strain YMC17/02/B721,128
same,antibiotic susceptibility S/I/R,host strain YMC17/02/B4039,R
same,antibiotic susceptibility value,host strain YMC17/02/B4039,128
same,susceptibility category (S/I/R),host strain YMC17/02/B4039,R
same,susceptibility test value (number given before S/I/R),host strain YMC17/02/B4039,128
same,antibiotic susceptibility S/I/R,host strain YMC17/02/B4520,R
same,antibiotic susceptibility value,host strain YMC17/02/B4520,128
same,susceptibility category (S/I/R),host strain YMC17/02/B4520,R
same,susceptibility test value (number given before S/I/R),host strain YMC17/02/B4520,128
same,antibiotic susceptibility S/I/R,host strain YMC17/02/B4864,S
same,antibiotic susceptibility value,host strain YMC17/02/B4864,4
same,susceptibility category (S/I/R),host strain YMC17/02/B4864,S
same,susceptibility test value (number given before S/I/R),host strain YMC17/02/B4864,4
same,antibiotic susceptibility S/I/R,host strain YMC17/02/B8414,R
same,antibiotic susceptibility value,host strain YMC17/02/B8414,128
same,susceptibility category (S/I/R),host strain YMC17/02/B8414,R
same,susceptibility test value (number given before S/I/R),host strain YMC17/02/B8414,128
same,antibiotic susceptibility S/I/R,host strain YMC17/02/P523,R
same,antibiotic susceptibility value,host strain YMC17/02/P523,128
same,susceptibility category (S/I/R),host strain YMC17/02/P523,R
same,susceptibility test value (number given before S/I/R),host strain YMC17/02/P523,128
same,antibiotic susceptibility S/I/R,host strain YMC17/02/R541,R
same,antibiotic susceptibility value,host strain YMC17/02/R541,128
same,susceptibility category (S/I/R),host strain YMC17/02/R541,R
same,susceptibility test value (number given before S/I/R),host strain YMC17/02/R541,128
same,antibiotic susceptibility S/I/R,host strain YMC17/02/R2392,R
same,antibiotic susceptibility value,host strain YMC17/02/R2392,128
same,susceptibility category (S/I/R),host strain YMC17/02/R2392,R
same,susceptibility test value (number given before S/I/R),host strain YMC17/02/R2392,128
same,antibiotic susceptibility S/I/R,host strain YMC17/03/B4730,R
same,antibiotic susceptibility value,host strain YMC17/03/B4730,128
same,susceptibility category (S/I/R),host strain YMC17/03/B4730,R
same,susceptibility test value (number given before S/I/R),host strain YMC17/03/B4730,128
same,antibiotic susceptibility S/I/R,host strain YMC17/03/B5000,R
same,antibiotic susceptibility value,host strain YMC17/03/B5000,128
same,susceptibility category (S/I/R),host strain YMC17/03/B5000,R
same,susceptibility test value (number given before S/I/R),host strain YMC17/03/B5000,128
same,antibiotic susceptibility S/I/R,host strain YMC17/03/P971,R
same,antibiotic susceptibility value,host strain YMC17/03/P971,128
same,susceptibility category (S/I/R),host strain YMC17/03/P971,R
same,susceptibility test value (number given before S/I/R),host strain YMC17/03/P971,128
same,antibiotic susceptibility S/I/R,host strain YMC17/03/R348,R
same,antibiotic susceptibility value,host strain YMC17/03/R348,128
same,susceptibility category (S/I/R),host strain YMC17/03/R348,R
same,susceptibility test value (number given before S/I/R),host strain YMC17/03/R348,128
same,antibiotic susceptibility S/I/R,host strain YMC17/03/R585,R
same,antibiotic susceptibility value,host strain YMC17/03/R585,128
same,susceptibility category (S/I/R),host strain YMC17/03/R585,R
same,susceptibility test value (number given before S/I/R),host strain YMC17/03/R585,128
same,antibiotic susceptibility S/I/R,host strain YMC17/03/R1888,R
same,antibiotic susceptibility value,host strain YMC17/03/R1888,128
same,susceptibility category (S/I/R),host strain YMC17/03/R1888,R
same,susceptibility test value (number given before S/I/R),host strain YMC17/03/R1888,128
same,antibiotic susceptibility S/I/R,host strain YMC17/03/R3279,R
same,antibiotic susceptibility value,host strain YMC17/03/R3279,128
same,susceptibility category (S/I/R),host strain YMC17/03/R3279,R
same,susceptibility test value (number given before S/I/R),host strain YMC17/03/R3279,128
same,antibiotic susceptibility S/I/R,host strain YMC17/03/R4077,R
same,antibiotic susceptibility value,host strain YMC17/03/R4077,128
same,susceptibility category (S/I/R),host strain YMC17/03/R4077,R
same,susceptibility test value (number given before S/I/R),host strain YMC17/03/R4077,128
same,antibiotic susceptibility S/I/R,host strain YMC17/03/R4607,R
same,antibiotic susceptibility value,host strain YMC17/03/R4607,128
same,susceptibility category (S/I/R),host strain YMC17/03/R4607,R
same,susceptibility test value (number given before S/I/R),host strain YMC17/03/R4607,128
same,antibiotic susceptibility S/I/R,host strain YMC17/04/R488,R
same,antibiotic susceptibility value,host strain YMC17/04/R488,128
same,susceptibility category (S/I/R),host strain YMC17/04/R488,R
same,susceptibility test value (number given before S/I/R),host strain YMC17/04/R488,128
same,antibiotic susceptibility S/I/R,host strain YMC17/04/R640,R
same,antibiotic susceptibility value,host strain YMC17/04/R640,128
same,susceptibility category (S/I/R),host strain YMC17/04/R640,R
same,susceptibility test value (number given before S/I/R),host strain YMC17/04/R640,128
same,antibiotic susceptibility S/I/R,host strain YMC/17/05/R1095,R
same,antibiotic susceptibility value,host strain YMC/17/05/R1095,128
same,susceptibility category (S/I/R),host strain YMC/17/05/R1095,R
same,susceptibility test value (number given before S/I/R),host strain YMC/17/05/R1095,128
